The results in this text go back to patent US7388025B2, “3-aryl-isoxazole-4-carbonyl-benzofuran derivatives” (Hoffman-La Roche Inc., priority 2005, dated 2008).

The experiment has as its target T1, human GABA A receptor α5β3γ2 (Homo sapiens, UniProt P18507+P31644).
T1 construct: expressed in transfected cells; host or cells: HEK293 cells, transiently transfected; membranes prepared from them
In words: [3H]flumazenil competition binding, HEK293 cells expressing human GABA A α5β3γ2 receptors. To be noted: human α5β3γ2 in HEK293 (transiently transfected), 0.5 nM [3H]flumazenil, mean of two determinations; read-out: Ki[nM] hα5. As to the method:
Membrane Preparation and Binding Assay
The affinity of compounds at GABA A receptor subtypes was measured by competition for [3H]flumazenil (85 Ci/mmol; Roche) binding to HEK293 cells expressing rat (stably transfected) or human (transiently transfected) receptors of composition α1β3γ2, α2β3γ2, α3β3γ2 and α5β3γ2.
Cell pellets were suspended in Krebs-tris buffer (4.8 mM KCl, 1.2 mM CaCl2, 1.2 mM MgCl2, 120 mM NaCl, 15 mM Tris; pH 7.5; binding assay buffer), homogenized by polytron for ca. 20 sec on ice and centrifuged for 60 min at 4° C. (50000 g; Sorvall, rotor: SM24=20000 rpm). The cell pellets were resuspended in Krebs-tris buffer and homogenized by polytron for ca. 15 sec on ice. Protein was measured (Bradford method, Bio-Rad) and aliquots of 1 mL were prepared and stored at −80° C.
Radioligand binding assays were carried out in a volume of […] (96-well plates) which contained […] of cell memebranes, [3H]flumazenil at a concentration of 1 nM for α1, α2, α3 subunits and 0.5 nM for α5 subunits and the test compound in the range of […]. Nonspecific binding was defined by 10^−5 M diazepam and typically represented less than 5% of the total binding. Assays were incubated to equilibrium for 1 hour at 4° C. and harvested onto GF/C uni-filters (Packard) by filtration using a Packard harvester and washing with ice-cold wash buffer (50 mM Tris; pH 7.5). After drying, filter-retained radioactivity was detected by liquid scintillation counting. Ki values were calculated using Excel-Fit (Microsoft) and are the means of two determinations.
In general, Ki refers to a measure of affinity in units of concentration, obtained from inhibition or displacement. Take `Cc1onc(-c2ccc(Br)cc2)c1C(=O)c1cc2cccc(OCC(=O)NC(C)C)c2o1` [Example 37, 2-{2-[3-(4-Bromo-phenyl)-5-methyl-isoxazole-4-carbonyl]-benzofuran-7-yloxy}-N-isopropyl-acetamide]: the inhibitory constant (Ki) worked out at 2.3 nM.

`Cc1onc(-c2ccc(Br)cc2)c1C(=O)c1cc2cccc(OCc3ncnn3C)c2o1` [Example 38, [3-(4-Bromo-phenyl)-5-methyl-isoxazol-4-yl]-[7-(2-methyl-2H-[1,2,4]triazol-3-ylmethoxy)-benzofuran-2-yl]-methanone]: the Ki was determined as 15.1 nM.

Regarding `Cc1cc(COc2cccc3cc(C(=O)c4c(-c5ccc(Br)cc5)noc4C)oc23)on1` [Example 39, [3-(4-Bromo-phenyl)-5-methyl-isoxazol-4-yl]-[7-(3-methyl-isoxazol-5-ylmethoxy)-benzofuran-2-yl]-methanone], the Ki came out at 63.8 nM.

For `Cc1onc(-c2ccc(Br)cc2)c1C(=O)c1cc2ccc(O)cc2o1` [Example 40, [3-(4-Bromo-phenyl)-5-methyl-isoxazol-4-yl]-(6-hydroxy-benzofuran-2-yl)-methanone], the Ki worked out at 9.3 nM.

In the case of `COc1ccc2cc(C(=O)c3c(-c4ccc(Br)cc4)noc3C)oc2c1` [Example 41, [3-(4-Bromo-phenyl)-5-methyl-isoxazol-4-yl]-(6-methoxy-benzofuran-2-yl)-methanone], the Ki was 3.1 nM.

With `Cc1onc(-c2ccc(Br)cc2)c1C(=O)c1cc2cc(O)ccc2o1` [Example 42, [3-(4-Bromo-phenyl)-5-methyl-isoxazol-4-yl]-(5-hydroxy-benzofuran-2-yl)-methanone], the inhibitory constant (Ki) turned out to be 4.6 nM.

For the compound `COc1ccc2oc(C(=O)c3c(-c4ccc(Br)cc4)noc3C)cc2c1` [Example 43, [3-(4-Bromo-phenyl)-5-methyl-isoxazol-4-yl]-(5-methoxy-benzofuran-2-yl)-methanone], the inhibitory constant (Ki) came to 2.9 nM.

As for `COc1cccc2oc(C(=O)c3c(-c4ccc(Br)cc4)noc3C)cc12` [Example 44, [3-(4-Bromo-phenyl)-5-methyl-isoxazol-4-yl]-(4-methoxy-benzofuran-2-yl)-methanone], the Ki is 4.8 nM.

For the compound “(5-Methoxy-benzofuran-2-yl)-(5-methyl-3-phenyl-isoxazol-4-yl)-methanone [Example 21]”, the inhibition constant (Ki) amounted to 1.4 nM.
